This test deals with 5×-UPRE luciferase reporter (XBP-1s). Description: 5×-UPRE luciferase reporter assay, HT1080 cells. The class given is cell-based, human. The protocol: HT1080 cells stably expressing the XBP-luciferase construct were grown in 60 mm dishes to 60-70% confluency. Following hypoxia treatment, cells were washed twice with PBS, lysed in 400 μl 1× reporter lysis buffer (RLB) (Promega, Madison Wis.) for 30 min at 24° C. Lysates (100 μl) were mixed with an equal volume of luciferase substrate (Promega), and assayed using a luminometer. For 5×-UPRE-luciferase reporter assays, cells were co-transfected with the appropriate reporter plasmid and a control plasmid (pSV40-beta-gal) using Lipofectamine 2000 (Invitrogen, San Diego, Calif.). Twenty-four hours after transfection, fresh media was added, and cells were treated with Tm or shifted to hypoxia. After treatment, cells were lysed in 1×RLB and analyzed for luciferase activity as described above. Beta-galactosidase activity was determined using the beta-galactosidase enzyme assay system (Promega).
A. XBP-luciferase reporter construct. Firefly luciferase was inserted downstream of the IRE1α splice site in human XBP-1 to enable the conditional translation of luciferase under ER stress in an IRE1α-dependent manner. B. Selective inhibition of the XBP-luciferase reporter by irestatin 9389. HT1080 human fibrosarcoma cells stably expressing the XBP-luciferase reporter or CMV-luciferase were cultured in the presence of Tm (4 μg/ml) and Tg (0.4 μM) and irestatin 9389 at the indicated concentrations. After 24 hours, luciferase activity was analyzed in an automated plate reader. For each cell line, values are expressed as the percent inhibition of the median for Tm/Tg-treated wells, corrected for background. C. Structure of irestatin 9389. […] Values are expressed as the fold increases over uninduced levels. […] Cells were harvested, lysed, and analyzed by immunoblotting with antisera specific for HIF-1α (top), XBP-1s (middle) or actin (bottom). […] Total RNA was analyzed by Northern blotting using radiolabeled probes specific for P58^IPK or DER-1. […]
Since these assays employed a chimeric XBP-luciferase substrate, we next determined whether irestatin 9389 could inhibit the function of endogenous XBP-1s. […]

The values that follow come from patent US20130150399A1, “INHIBITORS OF THE UNFOLDED PROTEIN RESPONSE AND METHODS FOR THEIR USE” (The Board of Trustees of the Leland Stanford Junior …, priority 2006, published 2013).

As to `Cc1csc(NC(=O)CSc2nc3c(c(C(F)(F)F)c2C#N)CCC3)n1` [Compound 9389], the “diminution of hypoxia-induced UPRE luciferase response” value (48 hours of hypoxia (vehicle 170-fold)) is reported as “more than 90%”. Further, where the note is “cells exposed to both Tm and irestatin 9389”, the “induction of 5×-UPRE luciferase activity over untreated cells” value was below 4 fold.
